{
  "source": "patent EP3263567A1",
  "about": "“CARBOXAMIDE-SUBSTITUTED PYRAZOLES AND TRI(HETERO)ARYL-PYRAZOLES FOR USE IN METHODS OF TREATING AND / OR PREVENTING CARDIOVASCULAR DISEASES AND / OR COMORBIDITIES THEREOF” (AiCuris Anti-infective Cures GmbH, priority 2016, dated 2018)",
  "target": "T1, Nav1.5 (Homo sapiens, UniProt Q14524)",
  "T1 construct": "expressed in transfected cells; host or cells: CHO (ATCC CCL-61), stably transfected; selection with Geneticin and Puromycin",
  "T1 sequence (Q14524 whole entry)": "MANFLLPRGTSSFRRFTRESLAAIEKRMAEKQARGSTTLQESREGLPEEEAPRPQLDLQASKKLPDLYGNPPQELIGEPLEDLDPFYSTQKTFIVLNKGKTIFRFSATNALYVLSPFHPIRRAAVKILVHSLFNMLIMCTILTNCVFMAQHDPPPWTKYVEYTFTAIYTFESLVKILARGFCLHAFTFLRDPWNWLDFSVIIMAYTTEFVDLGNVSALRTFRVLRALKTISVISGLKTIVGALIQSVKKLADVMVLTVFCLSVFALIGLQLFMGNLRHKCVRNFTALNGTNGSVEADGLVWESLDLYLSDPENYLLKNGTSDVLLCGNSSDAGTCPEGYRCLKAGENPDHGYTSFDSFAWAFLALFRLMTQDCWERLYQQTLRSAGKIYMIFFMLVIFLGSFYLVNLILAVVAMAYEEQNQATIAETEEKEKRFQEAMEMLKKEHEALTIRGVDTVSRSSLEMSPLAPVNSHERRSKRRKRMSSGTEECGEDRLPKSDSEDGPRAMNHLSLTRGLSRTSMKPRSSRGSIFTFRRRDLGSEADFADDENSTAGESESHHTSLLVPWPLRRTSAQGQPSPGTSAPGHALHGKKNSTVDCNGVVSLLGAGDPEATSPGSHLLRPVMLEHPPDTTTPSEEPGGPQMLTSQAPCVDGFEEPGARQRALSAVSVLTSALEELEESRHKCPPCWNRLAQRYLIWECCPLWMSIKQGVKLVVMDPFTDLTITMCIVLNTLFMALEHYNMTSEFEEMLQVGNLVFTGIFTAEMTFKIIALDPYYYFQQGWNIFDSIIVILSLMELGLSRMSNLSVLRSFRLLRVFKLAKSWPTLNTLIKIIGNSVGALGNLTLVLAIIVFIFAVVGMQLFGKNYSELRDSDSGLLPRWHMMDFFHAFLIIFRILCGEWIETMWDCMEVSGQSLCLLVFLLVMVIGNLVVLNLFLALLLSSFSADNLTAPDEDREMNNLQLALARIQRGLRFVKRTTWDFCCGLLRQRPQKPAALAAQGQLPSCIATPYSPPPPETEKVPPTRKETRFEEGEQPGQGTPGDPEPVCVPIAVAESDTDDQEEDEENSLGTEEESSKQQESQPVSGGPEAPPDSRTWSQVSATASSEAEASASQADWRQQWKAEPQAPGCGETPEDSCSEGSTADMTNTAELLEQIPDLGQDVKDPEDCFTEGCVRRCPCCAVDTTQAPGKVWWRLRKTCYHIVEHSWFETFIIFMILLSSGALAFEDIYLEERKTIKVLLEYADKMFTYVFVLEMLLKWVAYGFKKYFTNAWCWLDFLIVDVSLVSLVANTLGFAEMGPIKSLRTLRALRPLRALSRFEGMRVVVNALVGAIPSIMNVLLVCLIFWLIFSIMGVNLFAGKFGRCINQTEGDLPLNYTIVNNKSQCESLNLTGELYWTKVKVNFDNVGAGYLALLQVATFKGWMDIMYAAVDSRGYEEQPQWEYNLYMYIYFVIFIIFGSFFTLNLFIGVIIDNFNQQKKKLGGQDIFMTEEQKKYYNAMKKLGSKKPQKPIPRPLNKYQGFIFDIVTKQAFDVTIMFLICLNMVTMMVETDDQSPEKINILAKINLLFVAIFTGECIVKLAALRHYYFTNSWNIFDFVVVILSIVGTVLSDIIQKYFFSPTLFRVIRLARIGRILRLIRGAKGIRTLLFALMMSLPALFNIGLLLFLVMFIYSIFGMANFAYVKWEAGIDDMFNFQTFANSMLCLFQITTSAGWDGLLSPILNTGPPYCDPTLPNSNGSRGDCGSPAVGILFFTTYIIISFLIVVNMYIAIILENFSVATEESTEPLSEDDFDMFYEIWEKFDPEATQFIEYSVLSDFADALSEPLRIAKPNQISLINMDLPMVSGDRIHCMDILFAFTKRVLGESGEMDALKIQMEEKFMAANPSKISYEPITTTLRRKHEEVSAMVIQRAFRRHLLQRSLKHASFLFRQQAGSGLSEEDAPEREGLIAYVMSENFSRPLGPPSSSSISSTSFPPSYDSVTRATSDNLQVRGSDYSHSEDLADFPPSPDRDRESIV",
  "test": "Whole-cell patch-clamp, Nav1.5 currents in stably transfected CHO cells",
  "assay_type": "cell-based",
  "description": "[drawing 92] i.e. 4-[5-[3-Chloro-5-(trifluoromethoxy) phenyl]-1-(pyridin-3-yl)-1H-pyrazol-3-yl]-5,6-dihydro-7H-pyrrolo[3,4-d]pyrimidin-7-one, was tested for its effects on human Nav1.5, Cav1.2, Kv1.5, and HCN4 currents recorded from stably transfected CHO cells. The effect of four concentrations of this compound on these currents was investigated.\nThe whole-cell patch-clamp technique was used to investigate the effect of Compound A on the currents of Nav1.5, Kv1.5, Cav1.2 and HCN4 channels, expressed in CHO cells (ATCC, CCL-61). Compound A was tested at concentrations of 200 nM, 600 nM, 2000 nM and 6000 nM. For all ion channels 0.1% DMSO was used as vehicle and ZD7288 as suitable blockers were applied to assure accuracy of the method. The selection antibiotics can be dervied from the Table below:\nConcentrations of 200 nM, 600 nM, 2000 nM and 6000 nM of Compound A were tested. […]\nThe 35 mm culture dishes upon which cells were seeded at a density allowing single cells to be recorded were placed on the dish holder of the microscope and continuously perfused (at approximately 1 mL/min) with the bath solution described in section 4.7. […]\nAs soon as a stable seal could be established outward tail currents were measured upon pulses described in the Table below: […]\nValues in Ampere (A) of the peak amplitudes of outward tail currents were generated for each voltage step. […] The recorded current amplitudes at the steady state level of current inhibition were compared to those from control conditions measured in the pre-treatment phase of the same cell. The amount of current block was calculated as percentage of control. To determine whether the observed current inhibition was due to Compound A-interaction with the respective ion channel or due to current rundown, these residual currents were compared to those measured in vehicle treated cells. Data from at least two individual experiments were collected and the corresponding mean values and standard deviations were calculated. […]",
  "data": [
    {"smiles": "O=C1NCc2c1ncnc2-c1cc(-c2cc(Cl)cc(OC(F)(F)F)c2)n(-c2cccnc2)n1", "note": "[Compound A, 4-[5-[3-Chloro-5-(trifluoromethoxy)phenyl]-1-(pyridin-3-yl)-1H-pyrazol-3-yl]-5,6-dihydro-7H-pyrrolo[3,4-d]pyrimidin-7-one]", "values": [
      {"measurement": "reduction of the current amplitude (Nav1.5, fast inactivated state)", "setting": "at ≤ 6 µM", "result": "more than 30%"},
      {"measurement": "IC50", "setting": "highest concentration tested 6,000 nM, read-out: IC50 (Nav1.5, fast inactivated state)", "result": "> 6", "unit": "µM"},
      {"measurement": "interaction with ion channels of Nav", "setting": "summary statement", "result": "do not interact with other ion channels of Nav, Kav, and Cav substantially"}
    ]}
  ]
}
